Test results reported in patent US10111901B2, “Beta-glucan in combination with anti-cancer agents affecting the tumor microenvironment” (Biothera, Inc., priority 2014, dated 2018).

Legend:
CD4 T cells = assay: Mac-CD4 T cell proliferation assay (CFSE dilution, Division Index); assay type: cell-based, human
Procedure: CD14^+ monocytes from human whole blood were enriched using Ficoll gradient and magnetic bead separation. Enriched monocytes (5×10^5 cells per mL) were then cultured in either M1-polarizing (XVivo 10 media (Lonza Group) supplemented with 5% autologous serum and 100 ng/mL recombinant human granulocyte macrophage colony-stimulating factor (rhGM-CSF) (R&D Systems) or M2-polarizing (XVivo 10 media supplemented with 10% autologous serum and 50 ng/mL recombinant human macrophage colony-stimulating factor (rhM-CSF) (R&D Systems) conditions for 6 days. In experiments performed to evaluate the effect of β-glucan, whole blood was first incubated with vehicle (sodium citrate buffer) or 25 μg/mL soluble β-glucan for 2 hours at 37° C. and then the monocytes were isolated and differentiated. Morphology was checked before macrophages were harvested for phenotypic analysis. Culture medium of the day 6 macrophage culture (MCM) was collected, spun down to remove contaminated cell pellet and then frozen down for subsequent cytokine analysis by ELISA or used to setup a co-culture with CD3 & CD28-stimulated CD4 T cells (MCM-CD4 T) for evaluation of either surface markers or CD4 T cell proliferation. The macrophages were used to setup a co-culture with CD3 & CD28- or CD3 only-stimulated CD4 T cells (Mac-CD4 T) on day 6 for evaluation of either surface marker modulation or effect on CD4 T cell proliferation. For Mac-CD4 T cell proliferation study, M1 or M2 macrophages were cultured with CD3 & CD28- or CD3 only-stimulated, CFSE-labeled, autologous CD4 T cells at a 1:10 ratio. T cell proliferation was measured at the end of the experiment (day 9-day 11) by flow cytometry, and results are graphically shown as CFSE-dilution peaks. The assessment of CD3-only stimulated T cells was always done on day 11. Quantitative results were reported as the Division Index (the average number of cell divisions a population underwent) calculated for each of the triplicate wells in each of the culture conditions. Culture supernatants of Mac-CD4 T co-cultures were collected for subsequent cytokine analysis.
Next, vehicle- or β-glucan-treated M1 or M2 macrophages were cultured with CD3 and CD28-stimulated, carboxyfluorescein diacetate succinimidyl ester (CFSE)-labeled autologous CD4 T cells and T cell proliferation was measured at the end of the experiment by flow cytometry and results quantitatively reported as division index (the average number of cell divisions a population has undergone).
Next, the ability of M1/M2 macrophages derived from soluble β-glucan-treated monocytes from high binders and low binders to enhance CD3 & CD28-stimulated CD4 T cell proliferation was evaluated.
Evaluation of cell-to-cell contact was carried out as follows: vehicle- and β-glucan-treated M2 macrophages and CD3 & CD28− versus CD3 only-stimulated CD4 T cell co-cultures were utilized for measuring CD4 T cell proliferation and IFN-γ production.

monocytes = assay: β-glucan binding to monocytes in whole blood, serum cross-over; assay type: cell-based, human
Procedure: To test this, M2 macrophages were prepared as described above with a few modifications. The whole blood of a low binder was spun down to remove the plasma and then the cells were reconstituted with serum obtained from a high binder. The reconstituted blood was treated with vehicle or β-glucan (25 μg/mL) for 2 hours at 37° C. The monocytes were evaluated for binding by using anti-β-glucan specific monoclonal antibody and subsequent flow cytometry.

[1] = tested on: tumor cell lines, including NSCLC, breast, pancreatic, colon, and B cell lymphoma; assay: PD-L1 expression on tumor cell lines incubated with supernatant of M2 macrophage/MoDC and T cell co-culture; assay type: cell-based; settings: supernatants of proliferation assays, 48 hours
Procedure: M2 macrophages and MoDC were prepared as described above. The macrophages and the MoDC were subsequently used in T cell proliferation assays as described previously. The supernatants from these proliferation assays were harvested and incubated with various tumor cell lines, including NSCLC, breast, pancreatic, colon, and B cell lymphoma. The expression of PD-L1 on these tumor cell lines were evaluated post 48 hours by flow cytometry. Shown in FIG. 15 are representative results from 3 different experiments.

CD4 and CD8 T cells = assay: T cell proliferation and activation of PBMCs cultured in plasma from treated whole blood; assay type: cell-based, human
Procedure: To obtain plasma, whole blood was treated for 6 hours with 25 μg/mL β-glucan or vehicle, spun down and the plasma removed. 50,000 autologous CFSE-labeled PBMCs were cultured in the treated plasma for 3 days in the presence of 50,000 T cell activating CD3/28 beads (DYNABEADS Human T-Activator CD3/CD28 for T Cell Expansion and Activation). At the end of the culture, PBMCs were stained with CD4 and CD8 and T cell proliferation was measured by CFSE dilution.
Next, to show the effect of soluble β-glucan on CD4 and CD8 cell activation, the T cell proliferation assay described above was again carried out. At day 3, however, the cells were stained for markers of activation including Granzyme B production and CD25 upregulation.
To determine whether the enhancement of T cell proliferation by β-glucan is direct or indirect, T cell proliferation assays were carried out as described above except the plasma from untreated (vehicle) whole blood was then either treated with β-glucan or vehicle prior to adding to autologous PBMCs. CFSE dilution was quantitated by Division Index using FLOWJO software and plotted as fold change over vehicle control. The results shown in FIG. 5C indicate that β-glucan's enhanced effect is due to indirect mechanisms.

mMoDC = assay: Flow cytometry of maturation markers on mature monocyte-derived dendritic cells (mMoDC); assay type: cell-based, human
Procedure: Given that macrophages and dendritic cells are the two key antigen presenting cell types that bridge innate and adaptive immunity, the phenotypic and functional effect of soluble β-glucan was also evaluated on human monocyte-derived dendritic cells (MoDC). Monocytes enriched from soluble β-glucan- or vehicle-treated whole blood were cultured in media containing the appropriate cytokines, GM-CSF plus IL-4, for differentiation of dendritic cells. Steps included in the method for in vitro culture and characterization of human MoDCs are outlined below.
The phenotypic and functional evaluation of mMoDC prepared from soluble β-glucan-treated whole blood of a high binder and low binder was carried out. mMoDCs from a high binder and a low binder were prepared as described above. mMoDCs were evaluated for CD80, CD83, CD86 and HLA-DR expression by flow cytometry, and median MFI was calculated for isotype control staining and surface antigen staining and the results are shown in Table 7.
MoDC derived from β-glucan-treated monocytes are more mature even in immunosuppressive conditions. MoDCs were prepared as described above. TCM was added to account for 70% of the volume of the culture on day 0 and was present throughout the culturing period. mMoDCs cultured in the presence of TCM were subsequently evaluated for phenotypic changes.

[2] = MoDC cultured in TCM, immunosuppressive conditions

## β(1,6)-[poly-(1,3)-D-glucopyranosyl]-poly-β(1,3)-D-glucopyranose [β-glucan]
CD4 T cells; M2 macrophages cultured in TCM and M2a macrophages cultured in IL-4, vs vehicle-treated
  CD4 T cell proliferation: maintained the ability to enhance CD4 T cell proliferation
CD4 T cells; β-glucan-treated M1 macrophages, high binders or low binders
  CD3 & CD28-stimulated CD4 T cell proliferation: no differences
CD4 T cells; β-glucan-treated M2 macrophages vs vehicle-treated, high binders
  CD3 & CD28-stimulated CD4 T cell proliferation: significantly higher ability to enhance
CD4 T cells; β-glucan-treated M2 macrophages with CD3 and CD28-stimulated CD4 T cells, FIG. 2C
  CD4 T cell proliferation: enhance CD4 T cell proliferation
CD4 T cells; β-glucan-treated M2 macrophages, absence of exogenous CD28 antibody (CD3 only)
  CD4 T cell proliferation: significantly higher ability to enhance
CD4 T cells; β-glucan-treated M2 macrophages, low binders
  CD3 & CD28-stimulated CD4 T cell proliferation: no enhanced proliferation
monocytes; low binder's whole blood with high binder's serum containing higher levels of ABA
  binding of β-glucan to monocytes: significantly higher binding
monocytes; whole blood of a low binder
  binding of β-glucan to monocytes: did not bind
[1]
  PD-L1 expression on the tumor cell lines: enhances PD-L1 expression
CD4 and CD8 T cells; plasma from whole blood treated 6 hours with 25 μg/mL β-glucan, vs vehicle
  CD4 and CD8 proliferation (CFSE dilution): significant enhancement
CD4 and CD8 T cells; β-glucan-treated plasma, day 3
  CD4 and CD8 cell activation (Granzyme B production, CD25 upregulation): enhances CD4 and CD8 cell activation
mMoDC; MoDC cultured in TCM (70% of volume, from day 0), immunosuppressive conditions
  CD80 median MFI: 465
mMoDC; [2]
  CD83 median MFI: 607
  CD86 median MFI: 15797
  HLA-DR median MFI: 361
mMoDC; mMoDCs, high binder
  CD80 median MFI: 744
  CD83 median MFI: 466
  CD86 median MFI: 10759
  HLA-DR median MFI: 7049
mMoDC; mMoDCs, low binder
  CD80 median MFI: 1197
  CD83 median MFI: 2924
  CD86 median MFI: 77749
  HLA-DR median MFI: 2960
